Publication PMC11302688, “The Effect of Replication Protein A Inhibition and Post-Translational Modification on ATR Kinase Signaling” (Research Square, 2024)
Read-outs that look alike come from different tables or passages of the source. Values belong to the molecule of their own block, whether it stands above or below them.

Assays:
ATR-ATRIP = target: T1, ATR-ATRIP (Homo sapiens, UniProt P27694); experiment: Reconstituted ATR kinase assay (western blot of phosphorylation targets); assay type: biochemical; conditions: for IC50: fully reconstituted ATR kinase reaction; for ATR-dependent phosphorylation of RPA32 Ser33 and Thr21 / ATR-dependent phosphorylation of p53 Ser15: reconstituted reaction with ssDNA, RPA, TopBP1, ATR-ATRIP, western blot
T1 construct: His (C); purchased Eurofins DiscoverX 14–953
T1 sequence (P27694 whole entry): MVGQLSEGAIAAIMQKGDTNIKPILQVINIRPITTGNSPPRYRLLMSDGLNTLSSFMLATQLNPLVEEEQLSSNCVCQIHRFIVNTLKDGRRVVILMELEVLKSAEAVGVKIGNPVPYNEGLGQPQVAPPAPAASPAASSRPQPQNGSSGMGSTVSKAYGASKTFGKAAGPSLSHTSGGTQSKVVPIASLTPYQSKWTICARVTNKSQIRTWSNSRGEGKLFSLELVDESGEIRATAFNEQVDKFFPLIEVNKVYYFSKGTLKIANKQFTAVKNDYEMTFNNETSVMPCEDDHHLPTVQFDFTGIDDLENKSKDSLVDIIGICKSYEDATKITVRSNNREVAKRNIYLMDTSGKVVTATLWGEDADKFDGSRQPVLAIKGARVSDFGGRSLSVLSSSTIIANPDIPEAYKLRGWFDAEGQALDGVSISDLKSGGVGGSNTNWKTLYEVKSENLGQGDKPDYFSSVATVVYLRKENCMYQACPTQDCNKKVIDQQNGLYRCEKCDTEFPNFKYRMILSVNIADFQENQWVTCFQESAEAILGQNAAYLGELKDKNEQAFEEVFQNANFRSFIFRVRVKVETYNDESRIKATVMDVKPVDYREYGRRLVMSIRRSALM
T1 sequence (P15927 whole entry partner): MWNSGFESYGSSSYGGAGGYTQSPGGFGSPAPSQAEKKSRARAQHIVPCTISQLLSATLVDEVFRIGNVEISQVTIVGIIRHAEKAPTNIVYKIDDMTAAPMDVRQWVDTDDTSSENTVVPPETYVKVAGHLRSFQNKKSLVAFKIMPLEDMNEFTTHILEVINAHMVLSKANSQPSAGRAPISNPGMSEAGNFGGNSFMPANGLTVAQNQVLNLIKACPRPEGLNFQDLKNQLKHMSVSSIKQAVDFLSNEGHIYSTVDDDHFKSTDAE
T1 sequence (P35244 whole entry partner): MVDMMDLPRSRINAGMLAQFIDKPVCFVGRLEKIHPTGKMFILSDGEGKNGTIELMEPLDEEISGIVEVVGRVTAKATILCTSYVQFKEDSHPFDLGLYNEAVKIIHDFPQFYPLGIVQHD
Description: The minimal requirements to reconstitute ATR signaling in vitro are ssDNA, RPA, TopBP1, and ATR-ATRIP, and a phosphorylation target[51]–[54]. We used a similar experimental design with purified RPA, TopBP1, p53, and ATR-ATRIP, and reconstituted ATR activation and signaling using an M13mp18 ssDNA plasmid (Figure S1A-B). It has been reported that TopBP1 can stimulate ATR activity independent of RPA and in the presence or absence of a variety of DNA substrates at specific protein and salt concentrations, though the physiological relevance is unknown. We, therefore, first established physiological experimental conditions to reflect the dependence of ATR kinase activity on RPA, ssDNA, and TopBP1 by monitoring the phosphorylation of the ATR target p53 at Ser15. Low, background levels of ATR-dependent p53 phosphorylation are observed with various combinations of ssDNA, RPA, and TopBP1, however, as expected, maximal activation is observed only in the presence of all three (Fig. 1A–B). Importantly, p53 phosphorylation under our assay conditions was dependent upon RPA and ssDNA. […] (Fig. 1A–B). The RPA70 OB-F domain interacts with p53, and this interaction is thought to facilitate the recruitment of p53 for ATR phosphorylation. p53 also has weak ssDNA binding affinity that could influence it as a substrate for ATR, so we next compared the phosphorylation of wild-type (WT) p53 with that of the DNA-binding-impaired p53 R175H mutant. […] We then evaluated the impact of chemical RPA inhibition on ATR-dependent p53 phosphorylation in the reconstituted reactions. We first assessed the activity of RPA inhibitors that block the RPA-ssDNA interaction (RPA-DBi).
Kinase assays were performed in 15 mM HEPES pH 7.9, 30 mM KCl, 3 mM MgCl2, 5% glycerol, 1x phosphatase inhibitor cocktail 2 (Sigma-Aldrich, P5726), 0.5 mM DTT. RPAi were suspended in 100% DMSO, and the DMSO concentration in the final reaction mixture was kept constant at 5%. In a typical reaction (20 μL), 20 ng ATR-ATRIP, 20 nM TopBP1, 20 nM RPA, and 40 nM p53 were initially incubated on ice for 15 min. Reactions were initiated by the addition of 100 μM ATP and 1 ng M13mp18 ssDNA plasmid and incubated at 37°C for 1 hr. Reactions were quenched by the addition of 6x Laemmli buffer and brief boiling at 95°C. For reactions with RPAi, inhibitors were added for the initial 15 min incubation on ice. For reactions with pRPA, the indicated proteins (same concentrations as above) were incubated with 0.5 ng/μL DNA-PK, 100 μM ATP, and 1 ng M13mp18 ssDNA plasmid for 30 min at 37°C. Reactions were moved back to ice and 100 nM NU7441 was added to inhibit further DNA-PK kinase activity (for subsequent ATR kinase reactions) or quenched with 6x Laemmli buffer and brief boiling at 95°C (for control reactions). The remaining components required for ATR kinase reaction were then added to each reaction as indicated and returned to 37°C for 1 hr before quenching in the same manner as above. Proteins were separated by SDS-PAGE and transferred to polyvinylidene difluoride (PVDF) membranes (Bio-Rad, 1620177). Immunoblotting for RPA32 pSer33 (Thermo Fisher Scientific, A300–246A), RPA32 pSer4/8 (Thermo Fisher Scientific, A300–245A), RPA32 (Thermo Fisher Scientific, PA5–2256), and TopBP1 pSer1138 (Thermo Fisher Scientific, PA5–114666) were conducted in Tris-buffered saline (TBS)/0.5% Tween20 and immunoblotting for p53 pSer15 (Cell Signaling Technology, 9284S), p53 (Cell Signaling Technology, 2524S), and RPA32 pThr21 (Thermo Fisher Scientific, PA5–104809) were conducted in TBS/0.1% Tween20. All membranes were blocked with 2% BSA in TBS/Tween20 and incubated rocking at 4°C overnight. Membranes were washed with TBS/Tween20 and incubated with the corresponding IgG-horseradish peroxidase (HRP) secondary antibody (Bio-Rad, 1706515 & 1706516) for two hours at room temperature with orbital shaking. […]

RPA [1] = target: T2, RPA (Homo sapiens, UniProt P27694); conditions: read-out: in vitro RPA-DNA binding inhibition IC50; cited from earlier work
T2 construct: His (C); made in house; host or cells: E. coli BL21(DE3)
T2 sequence (P27694 whole entry): as the sequence (P27694 whole entry) above
T2 sequence (P15927 whole entry partner): as the sequence (P15927 whole entry partner) above
T2 sequence (P35244 whole entry partner): as the sequence (P35244 whole entry partner) above

RPA [2] = target: T2, RPA; parameters: method as in PMID 25070753; conditions: cited from earlier work
[3] = tested on: ATR phosphorylation events; parameters: method as in PMID 25070753; conditions: cited from earlier work
[4] = target: RPA (His-tagged heterotrimer RPA70/RPA32/RPA14) (UniProt P27694;P15927;P35244 1-616;1-270;1-121); experiment: EMSA; binding not disrupted by PAME 12.5-200 uM; PAME EMSA: 10 mM Tris pH 7.5, 10 mM NaCl, 10% glycerol, 25 C, 10 nM DNA, 7 nM (ssDNA) or 14 nM (duplex) RPA, 1% agarose; acetylation EMSA: 20 mM HEPES pH 7.8, 50 mM NaCl, 1 mM DTT, 5% DMSO, 0.001% NP-40, RT, 2.5 nM DNA, 6% native PAGE; conditions: protein: recombinant; tags: His (on RPA70, plasmid p11d-tRPA70-His); copies: 1;1;1; label: 5' IRDye700; single strand
Sequence of RPA (His-tagged heterotrimer RPA70/RPA32/RPA14) (P27694 whole entry, chain 1 of 3): as the sequence (P27694 whole entry) above
Sequence of RPA (His-tagged heterotrimer RPA70/RPA32/RPA14) (P15927 whole entry, chain 2 of 3): as the sequence (P15927 whole entry partner) above
Sequence of RPA (His-tagged heterotrimer RPA70/RPA32/RPA14) (P35244 whole entry, chain 3 of 3): as the sequence (P35244 whole entry partner) above

- IC50 (ATR-ATRIP; read-out: IC50 for ATR-dependent RPA32 Ser33 phosphorylation): 5 to 10 µM
- IC50 (ATR-ATRIP; read-out: IC50 for ATR-dependent RPA32 Thr21 phosphorylation): 5 to 10 µM
- IC50 (ATR-ATRIP; read-out: IC50 for ATR-dependent p53 Ser15 phosphorylation): 5 to 10 µM
- RPA phosphorylation at RPA32 Ser33 and Thr21 at low inhibitor concentration (ATR-ATRIP; low concentrations of inhibitor (Fig. 2C, lane 3), not observed with p53 Ser15): stimulated
- ATR-dependent phosphorylation of RPA32 Ser33 and Thr21 (ATR-ATRIP): dose-dependent inhibition
- ATR-dependent phosphorylation of p53 Ser15 (ATR-ATRIP): titratable inhibition
Molecule: CCOc1ccc2cc(C3CC(c4ccc(I)cc4)=NN3C(=O)CCCC(=O)O)c(Cl)nc2c1 (stereo not drawn) [TDRL-551]
- IC50 (RPA [1]): ~15 µM

- IC50 for RPA32 phosphorylation (both residues) lower than that of p53 phosphorylation (ATR-ATRIP; RPA32 Ser33 and Thr21 vs p53 Ser15): ~ 10 fold
- ATR-dependent phosphorylation of RPA32 Ser33 and Thr21 (ATR-ATRIP): inhibited
- ATR-dependent phosphorylation of p53 Ser15 (ATR-ATRIP): inhibited
Molecule: O=C1C=Cc2ccccc2/C1=C/Nc1ccccc1O [HAMNO, (1Z)-1-[(2-hydroxyanilino)methylidene]naphthalen-2-one]
- RPA ssDNA binding (RPA [2]): did not disrupt
- levels of ATR phosphorylation events in treated cells [3]: lower levels of ATR phosphorylation events

Molecule: CS(=O)(=O)c1ccc(-c2cnc(N)c(C(=O)Nc3ccccc3)n2)cc1 [VE-821]
- ATR-dependent phosphorylation of RPA32 Ser33 and Thr21 (ATR-ATRIP): abolished
- ATR-dependent phosphorylation of p53 Ser15 (ATR-ATRIP): no p53 phosphorylation is observed

Molecule: TTTTTTTTTTTTTTTTTTTTTTTTTTTTTT (ssDNA) [polyT 30mer]
- binding result [4]: binds
